The values that follow come from patent publication US6451761B1, “N′N′-dichlorinated omega-amino acids and uses thereof” (Queen's University at Kingston, priority 1999, dated 2002).

Molecules are shown by their SMILES.

Data set [1] is described as follows: Stability on storage and in water or solvents (TLC and NMR monitoring). The data set is classed as physicochemical. Here is the method: Taurine (1.5 g) was suspended in a mixture of methanol (50 mL) and 4 M aqueous hydrochloric acid (25 mL). To this was added in small aliquots 4-6% aqueous sodium hypochlorite (40 mL) with stirring. The taurine dissolved with evolution of gentle heat. After 2 h the solution was concentrated (below 30° C.) to a small volume. Ethanol (200 mL) was added and the precipitated sodium chloride was removed by filtration. This procedure was repeated until no more precipitate formed. After concentration to a small volume of oily residue, 50/50 methanol-ethyl acetate (100 mL) was added, and the mixture was again filtered to remove residual sodium chloride. Upon reconcentration, the residue was treated with 0.04 M aqueous hydrochloric acid in acetone (25 mL). Slow concentration yielded white, iridescent plates, (0.7 g). […] Detection was by spraying with 2% KI-starch (yellow-brown) followed by ethanolic ninhydrin (faintly pink); M.P. 148° C. UV (λmax) 310 nm (ε1.851×10^2, 95% ethanol); ^1Hmr (D2O) 3.05-3.2(2H, m) and 3.95-4.05(2H, m); MS (es−): 191.9(18.76%), 193.8 (13.41%), 195.8(2.83%).
(§1) The chlorinaton and desalting methodology was essentially similar to that for taurine. […] Final isolation was from 50/50 (^v/v) diethylether-methanol plus dichloromethane, followed by slow evaporation at approximately 0-4° C. M.P. 197° C.; UV: λmax 308 (ε1.486×10^2, 95% ethanol); ^1Hmr (D2O) δ: 2.05-2.15 (2H, m, αCH2), 2.95-3.05 (2H, m, βCH2), 3.9-4.0 (2H, m, γCH2); MS (es−): 205.9(1.4%), 207.9(0.88%), 210.0(0.31%).
N,N-dichloro-GABA: UV: λmax 308 nm (ε2.974×10^2, 95% ethanol); ^1Hmr (CDCl3) δ: 1.95-2.05 (2H, m,αCH2), 2.4-2.5 (2H, m, βCH2), 3.6-3.75 (2H, m, γCH2). Decomposition in water was about 50% in 3 h at room temperature (TLC monitored). […]
The procedure for the synthesis of N′N′-dichloro-leucine was identical to that for the dichloroGABA. The product is a pale-yellow oil. When stored in dichloromethane, at −10° C.; the compound readily decomposed with an approximate half-life of 1 h.
From the above Examples it is apparent that dichlorination of ω-amino acids yields products which vary considerably in their stability. […] The most important precaution required for stable storage is the removal of all traces of water. […] A yield of between 30-60% was obtained, which can be improved by more efficiently exploiting the fact that primary amines are far less soluble than their chlorinated products in non-polar solvents. Those of ordinary skill in the art will recognize that the methods for isolation of the chlorinated amino acids described here can be extended to other α-carboxyl amino acids, as well as peptides and proteins.

Data set [2] is described as follows: Solubility in nonpolar solvents. It counts as physicochemical. The following applies: compared with taurine homologue. On the procedure: as §1
Another data set concerns mice. As to conditions: mice (20 g), 200 mg/Kg.

Experimental for mice: Two other mice (20 g) received dichlorotaurine (0.1 mL=100 mg/Kg) s.c. at 60 min intervals for three hours.

Usually melting point stands for the temperature of the solid-liquid transition. As to `O=S(=O)(O)CCCN(Cl)Cl` [dichlorohomotaurine, N,N-dichlorohomotaurine], the melting point was 197 °C. Further, in data set [1], the hygroscopicity entry was “Fairly hygroscopic”. Further, the “stability in a humid atmosphere” value in data set [1] (humid atmosphere, compared with taurine homologue) is listed as “more unstable than its taurine homologue”. Further, in data set [1] (in water, read-out: t1/2 of decomposition to homotaurine (converted)), the half-life was 24 h. Besides, the “solubility in nonpolar solvents” value in data set [2] is “more soluble in nonpolar solvents”. Also, the behaviour following injection entry in the data set with mice is recorded as “almost indistinguishable from that observed with the taurine homologue”.
